This note sets out measurements from patent US10669240B2, “5-substituted indazole-3-carboxamides and preparation and use thereof” (Samumed, LLC, priority 2014, dated 2020).

This experiment concerns the target DYRK1A (Homo sapiens (Human), UniProt Q13627). Briefly: DYRK1A activity Tau assay: pSer396 Tau in SH-SY5Y cells by ELISA / western blot. Format: cell-based. The settings on record: overnight (16-18 h) exposure. (In general: In an ELISA, binding on a coated surface is turned into a signal by an enzyme label.)

Broadly, the EC50 is the midpoint of the concentration-response curve. Low values mean an effect from little substance, high ones a need for much substance. The compound `CC(C)(C)NC(=O)c1n[nH]c2ccc(-c3cncc(N4CCCC4)c3)cc12` [Compound 1214, N-(tert-Butyl)-5-(5-(pyrrolidin-1-yl)pyridin-3-yl)-1H-indazole-3-carboxamide] displayed an EC50 of 0.419 µM. Under `CN(C)Cc1cncc(-c2ccc3[nH]nc(C(=O)NC4(c5ccccc5)CC4)c3c2)c1` [Compound 37, 5-(5-((Dimethylamino)methyl)pyridin-3-yl)-N-(1-phenylcyclopropyl)-1H-indazole-3-carboxamide] stands 0.196 µM. Under `Cc1ncc(-c2ccc3[nH]nc(C(=O)NC4CCN(CC(C)(C)F)CC4)c3c2)cn1` [Compound 1322, N-(1-(2-Fluoro-2-methylpropyl)piperidin-4-yl)-5-(2-methylpyrimidin-5-yl)-1H-indazole-3-carboxamide] stands 0.534 µM; under `O=C(NC1CCN(CC(F)(F)F)CC1)c1n[nH]c2ccc(-c3cccnc3)cc12` [Compound 1182, 5-(Pyridin-3-yl)-N-(1-(2,2,2-trifluoroethyl)piperidin-4-yl)-1H-indazole-3-carboxamide], 0.008 µM. In the case of `CN1CCC(NC(=O)c2n[nH]c3ccc(-c4ccc(F)cc4F)cc23)CC1` [Compound 18, 5-(2,4-Difluorophenyl)-N-(1-methylpiperidin-4-yl)-1H-indazole-3-carboxamide] it was 0.454 µM; in that of `CC(C)(F)CN1CCC(NC(=O)c2n[nH]c3ccc(-c4cnccn4)cc23)CC1` [Compound 1319, N-(1-(2-Fluoro-2-methylpropyl)piperidin-4-yl)-5-(pyrazin-2-yl)-1H-indazole-3-carboxamide], 0.097 µM.

Take `CC[C@@H](C)NC(=O)c1n[nH]c2ccc(-c3cncc(Cl)c3)cc12` [Compound 1256, (R)—N-(sec-butyl)-5-(5-chloropyridin-3-yl)-1H-indazole-3-carboxamide]: the EC50 stood at 0.122 µM. Under `CN1CCC(NC(=O)c2n[nH]c3cc(F)c(-c4cccnc4)cc23)CC1` [Compound 1290, 6-Fluoro-N-(1-methylpiperidin-4-yl)-5-(pyridin-3-yl)-1H-indazole-3-carboxamide] stands 0.021 µM; under `CCN(CC)Cc1cncc(-c2ccc3[nH]nc(C(=O)NC(C)C)c3c2)c1` [Compound 1246, 5-(5-((Diethylamino)methyl)pyridin-3-yl)-N-isopropyl-1H-indazole-3-carboxamide], 0.045 µM; under `CN1CCC(NC(=O)c2n[nH]c3ccc(-c4cncc(CN5CCC(F)(F)C5)c4)cc23)CC1` [Compound 10, 5-(5-((3,3-Difluoropyrrolidin-1-yl)methyl)pyridin-3-yl)-N-(1-methylpiperidin-4-yl)-1H-indazole-3-carboxamide], 0.008 µM. In the case of `CN(C)Cc1ccc(NC(=O)c2n[nH]c3ccc(-c4cccnc4)cc23)cc1` [Compound 1324, N-(4-((Dimethylamino)methyl)phenyl)-5-(pyridin-3-yl)-1H-indazole-3-carboxamide] it was 0.01 µM; in that of `O=C(Nc1cccc(C(F)(F)F)n1)c1n[nH]c2ccc(-c3cccnc3)cc12` [Compound 42, 5-(Pyridin-3-yl)-N-(6-(trifluoromethyl)pyridin-2-yl)-1H-indazole-3-carboxamide], 0.115 µM. In the case of `CC(C)(F)CN1CCC(NC(=O)c2n[nH]c3ccc(-c4cncc(Cl)c4)cc23)CC1` [Compound 1311, 5-(5-Chloropyridin-3-yl)-N-(1-(2-fluoro-2-methylpropyl)piperidin-4-yl)-1H-indazole-3-carboxamide] it was 0.03 µM.

Regarding `CN1CCC(NC(=O)c2n[nH]c3ccc(-c4ccccc4)cc23)CC1` [Compound 14, N-(1-Methylpiperidin-4-yl)-5-phenyl-1H-indazole-3-carboxamide], the EC50 came out at 1.15 µM. In the case of `CC(C)N1CCC(NC(=O)c2n[nH]c3cc(Cl)c(-c4cccnc4)cc23)CC1` [Compound 1304, 6-Chloro-N-(1-isopropylpiperidin-4-yl)-5-(pyridin-3-yl)-1H-indazole-3-carboxamide] it was 0.096 µM.
